Laboratory results taken from US20030219894A1, “Induction of insulin-producing cells” (JCR Pharmaceuticals Co., Ltd., priority 2002, published 2003).

How the values were obtained:
Type in all cases: cell-based
[1] = system: mouse embryonic fibroblasts (MEF); assay: RT-PCR analysis of insulin 1 and 2 gene expression in mouse embryonic fibroblasts (negative control cells); settings: MEF from fetal limbs (ED13.5), medium supplemented with nicotinamide; FIG. 1
Procedure: (§1) Both insulin 1 and 2 genes were clearly expressed under the culture conditions used, as determined by RT-PCR analysis. It was assumed that some of the supplements (nicotinamide, EGF, insulin or dexamethasone) to the culture medium were responsible for the expression of the insulin genes in the hepatocytes. Each of these supplements was separately added to the DMEM/F12 containing 10% FBS, and effects on insulin expression was evaluated in thus formed different media. When cultured in a medium not supplemented with nicotinamide (containing just 0.0165 mmol/L of nicotinamide), the mouse fetal hepatocytes either din not express the insulin 1 or 2 gene at all, or did expressed them but only very poorly (FIG. 1). […] As a negative control, mouse embryonic fibroblasts (MEF) were prepared from fetal limbs (ED13.5), and cultured under the same conditions. […] Immunohistochemistry using anti-insulin antibody was employed to confirm that a high-concentration of nicotinamide was requited for the differentiation of mouse fetal hepatocytes into insulin-producing cells.

mouse fetal hepatocytes [2] = assay: Immunohistochemistry using anti-insulin antibody; settings: medium supplemented with nicotinamide; FIG. 3 vs FIG. 2
Source text: Fetal hepatocytes were fixed with 4% paraformaldehyde in 0.1 M phosphate buffer and stained by direct immunoperoxidase method using a guinea pig anti-pig insulin antibody (Zymed Laboratories, South San Francisco, Calif.) and a peroxidase-labeled pig anti-guinea pig IgG (DAKO Japan, Kyoto).
as §1

mouse fetal hepatocytes [3] = assay: RT-PCR analysis of insulin 1 and 2 gene expression in cultured fetal hepatocytes with medium supplements; settings: for induction of insulin 1 and 2 gene expression: supplement separately added to DMEM/F12 containing 10% FBS
Procedure: For preparing fetal hepatocytes, the liver of fetal ICR mice (embryonic day 13.5) was excised and treated with 0.1% trypsin-phosphate-buffered saline for 5 min at 37° C. A culture medium solution then was added, and the mixture was filtered through a nylon membrane (#200). The cell suspension thus obtained was centrifuged at 50 g for 5 min. The cell pellet was suspended in a medium consisting of 1:1 DMEM/F12 (Sigma D6421) supplemented with 10% fetal bovine serum, L-glutamine (2 mmol/L), β-mercaptoethanol (β-ME), (50 μmol/L), penicillin (100,000 U/L) and streptomycin (100 mg/L). The formula of the 1:1 DMEM/F12 (Dulbecco's Modified Eagle's Medium/Ham's Nutrient Mixture F-12: Sigma D6421) was as follows (in g/L): Ca2Cl2/2H2O (0.1545), CuSO4/5H2O (0.0000013), Fe(NO3)3/9H2O (0.00005). […]
Both insulin 1 and 2 genes were clearly expressed under the culture conditions used, as determined by RT-PCR analysis. […] Each of these supplements was separately added to the DMEM/F12 containing 10% FBS, and effects on insulin expression was evaluated in thus formed different media. […]

Row | Molecule | expression of the insulin 1 and 2 genes in MEF [1] | generation of insulin-positive cells (anti-insulin immunostaining) (mouse fetal hepatocytes [2]) | expression of the insulin 1 and 2 genes (mouse fetal hepatocytes [3]; medium supplemented with 10 mmol/L of nicotinamide, DMEM/F12 containing 10% FBS, FIG. 1) | induction of insulin 1 and 2 gene expression (mouse fetal hepatocytes [3])
1 | NC(=O)c1cccnc1 [nicotinamide] | expressed | led to generation of insulin-positive cells | markedly induced | –
2 | EGF: epidermal growth factor (EGF), culture medium supplement (NSDSECPLSHDGYCLHDGVCMYIEALDKYACNCVVGYIGERCQYRDLKWWELR; Epidermal growth factor; UniProt P01133 971-1023, looked up) | – | – | – | either had no effect or had only a marginal effect
3 | insulin: insulin, culture medium supplement (172 nmol/L) | – | – | – | either had no effect or had only a marginal effect
